Results as given in US8338420B1, “Treatment of Parkinson's disease and enhancement of dopamine signal using PDE 10 inhibitor” (Mitsubishi Tanabe Pharma Corporation, priority 2002, dated 2012).

Key:
PDE2 = molecular target: T1, PDE2 (Bos taurus, UniProt P14099); experiment: PDE assay, PDE2 enzyme solution from bovine adrenal gland; type: biochemical, Japanese Black Cattle; conditions: substrate about 12 nM [3H]-cGMP and 1 μM cGMP
T1 construct: tissue Tokyo Shibaura Zoki; host or cells: bovine adrenal gland, soluble fraction, ion-exchange fractions
T1 sequence (P14099 1-921): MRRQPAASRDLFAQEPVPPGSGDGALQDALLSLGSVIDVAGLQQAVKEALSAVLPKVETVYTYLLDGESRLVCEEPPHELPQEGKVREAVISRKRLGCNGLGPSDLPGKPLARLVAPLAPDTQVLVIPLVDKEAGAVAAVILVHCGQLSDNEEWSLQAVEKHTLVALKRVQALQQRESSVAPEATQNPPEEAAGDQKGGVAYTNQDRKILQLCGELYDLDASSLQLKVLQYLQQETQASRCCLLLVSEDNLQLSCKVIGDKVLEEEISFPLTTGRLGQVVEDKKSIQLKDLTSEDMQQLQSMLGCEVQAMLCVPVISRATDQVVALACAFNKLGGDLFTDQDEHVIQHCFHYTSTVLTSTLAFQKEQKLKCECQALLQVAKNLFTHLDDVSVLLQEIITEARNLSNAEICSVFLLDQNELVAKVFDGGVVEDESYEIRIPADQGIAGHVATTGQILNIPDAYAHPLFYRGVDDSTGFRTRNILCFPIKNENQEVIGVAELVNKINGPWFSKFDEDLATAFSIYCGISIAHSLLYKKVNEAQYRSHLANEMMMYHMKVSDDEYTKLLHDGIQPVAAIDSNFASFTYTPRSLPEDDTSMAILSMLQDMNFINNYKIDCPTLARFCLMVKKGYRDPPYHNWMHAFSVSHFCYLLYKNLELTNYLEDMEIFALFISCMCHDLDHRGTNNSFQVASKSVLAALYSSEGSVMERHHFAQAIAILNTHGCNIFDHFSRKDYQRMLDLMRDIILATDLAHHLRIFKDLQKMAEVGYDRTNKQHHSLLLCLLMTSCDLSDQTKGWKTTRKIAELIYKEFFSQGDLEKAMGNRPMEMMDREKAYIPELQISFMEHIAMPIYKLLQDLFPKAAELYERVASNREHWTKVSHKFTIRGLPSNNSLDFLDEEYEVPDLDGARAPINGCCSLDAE
Protocol: One adrenal gland of Japanese Black Cattle, purchased from Tokyo Shibaura Zoki, co., Ltd. was washed with 100 ml of ice-cold saline (0.9% sodium chloride) twice. Subsequently, the tissues were cut into about 1 gram, and it was frozen by liquid nitrogen. To about 2 g of this tissue sample was added 10 ml of an ice-cold homogenization buffer II (25 mM Tris-HCl, pH 7.5, 4 mM magnesium chloride, 0.5 mM EGTA, 2 mM dithiothreitol, 4 mM benzamidine, 0.1 mM phenylmethylsulfonyl fluoride), and the homogenate that was homogenized by Polytron homogenizer for 3 minutes was centrifuged at 8000 rpm, at 4° C. for 20 minutes, and the obtained supernatant was further centrifuged by an ultracentrifuge at 50000 rpm, at 4° C. for 60 minutes. The resultant supernatant was stored at 4° C.
This supernatant was applied to chromatography under the FPLC system, in the same manner as in Example 1 (1) above. […]
Subsequently, the eluted fractions were used as an enzyme solution for PDE assay, and cGMP-hydrolyzing activity was measured. Or, cAMP-hydrolyzing activity was measured for respective fractions, in the presence or absence of unlabeled cGMP. […]

[1] = test system: neurons of corpus striatum; experiment: Change in intracellular cAMP in primary cultured neurons of corpus striatum; type: cell-based, Wistar rat
Protocol: (1) Primary culture of neurons of corpus striatum Female Wistar rats on day 14 or day 15 of pregnancy were purchased from Japan SLC, Co. Ltd., and fetuses were taken out on day 18 of pregnancy. From the fetus, the brain was excised, and stored on ice-cold Leibovitz's L-15 medium (available from GIBCO) or on DMEM/F-12 medium (available from GIBCO). In the same medium, dura matter was removed and corpus striatum was collected. This striatum part was treated by trypsin to diffuse neurons, and the neurons were diluted and diffused in DMEM medium containing 10% bovine fetal serum. These neurons were inoculated in 48-well plate coated with 0.01% poly-L-lysine (available from Sigma) (2×10^5 cells/well) and cultured. On the next day, the medium was changed to Neurobasal medium (available from GIBCO), containing 50 fold-diluted B-27 supplement (available from GIBCO), and then, half of the medium was replaced on day 4, 7 and 9 of culture, to continue culture.
As in the above (1), neurons were cultured, and on day 10 of culture, the medium was removed, and then, a test compound (PDE10 inhibitors, etc.) diluted with Hank's balanced salt solution were added, and incubated at 37° C. for 15 minutes. Following that, forskolin (final concentration of 1 μM) or dopamine (final concentration of 100 nM) or D1 agonist (SKF82958 Sigma) (final concentration of 3 nM, 10 nM, 30 nM) was added thereto, and further incubated at 37° C. for 15 minutes.
Intracellular cAMP was measured using cAMP EIA kit available from Amersham Biosciences. Accordingly, after removing the reaction mixture, lysis buffer 1B (attached to cAMP EIA kit) was added to stop the reaction, and to lead cytolysis, and intracellular cAMPs were extracted. An amount of cAMPs in the extract was measured according to a protocol attached to the cAMP EIA kit.

Compound: COc1ccc(-c2cc(N3CCCC3)nc(/C=C/c3nc(-n4ccnc4)c4ccccc4n3)n2)cc1OC [Compound A, 2-{(E)-2-[4-(1-imidazolyl)-quinazolin-2-yl]}ethenyl-4-(3,4-dimethoxy)phenyl-6-(pyrrolidin-1-yl)pyrimidine]
- IC50 (PDE2): > 1000 nM
- intracellular cAMP increase caused by dopamine stimulus in neuron ([1]; compound concentration 1 μM, dopamine 100 nM): enhanced intracellular cAMP increase caused by dopamine stimulus
- intracellular cAMP increase caused by D1 agonist (SKF82958) stimulus in neuron ([1]; compound concentration 10 μM, 1 μM): enhanced intracellular cAMP increase caused by D1 agonist
- intracellular cAMP increase caused by forskolin stimulus in neuron ([1]; compound concentration 10 μM, 1 μM, forskolin 1 μM): enhanced intracellular cAMP increase caused by forskolin stimulus
